Reference: patent US20100197588A1, “USE OF A PEPTIDE AS A THERAPEUTIC AGENT” (priority 2007, published 2010)
Where no end group is shown, it is not given here.

Assays:
[1] = tested on: HIV-1IIIB; assay: HIV-1 antiviral assay in CEM-SS cells (MTS readout)
[2] = tested on: HCMV strain AD169; assay: HCMV plaque formation assay in MRC-5 cells
[3] = tested on: hepatitis B virus (HBV) ayw strain; assay: HBV experimental assay system, secreted HBV DNA by TaqMan PCR in HepG2-2.2.15 cells; type: cell-based; conditions: 10 micrograms per ml, six days
Source text: HepG2-2.2.15 is a stable cell line containing the hepatitis B virus (HBV) ayw strain genome (ATCC Cat. No. CRL-11997). Antiviral compounds blocking any late step of viral replication such as transcription, translation, pregenome encapsidation, reverse transcription, particle assembly and release can be identified and characterized using this cell line. In this assay, an active compound will reduce the production of secreted HBV from cells, measured by utilizing real time quantitative PCR (TaqMan) assay to directly and accurately measure HBV DNA copies.
HepG2-2.2.15 cells were plated in 96-well microtiter plates. After 16-24 hours the confluent monolayer of HepG2-2.2.15 cells was washed and the medium was replaced with complete medium containing test peptides—10 micrograms per ml—in duplicate. […] Six days following the initial administration of the peptides, the cell culture supernatants was collected, treated with pronase and DNAse and then used in a real-time quantitative TaqMan PCR assay. The PCR-amplified HBV DNA was detected in real-time by monitoring increases in fluorescence signals that result from the exonucleolytic degradation of a quenched fluorescence probe molecule that hybridizes to the amplified HBV DNA. […] Antiviral activity was calculated from the reduction in HBV DNA levels (% virus control). […]

[4] = tested on: A549 cells; assay: Apoptosis prevention assay (C2 ceramide, Annexin-5); conditions: 10 micrograms per ml, 30 min pretreatment, then C2 ceramide, combination 0.95 mole peptide 1 and 1.05 mole peptide 2
Method: Human A549 cells (carcinomic human alveolar basal epithelial cells) were utilized in the experiments employing the Annexin-5 apoptosis assay. […] A549 cells were pretreated for 30 min with test peptides—10 micrograms per ml—followed by the exposure to C2 ceramide.

[5] = tested on: Interleukin-4 (IL-4); assay: Th1/Th2 cytokine profiling assay, IL-4; conditions: 10 micrograms per ml; Ovalbumin-restimulated Balb/c spleen cells, 72 hours
Source text: (§1) The Balb/c mice (originated in 1923, it is a popular strain and is used in many different research disciplines. Also classified as an inbred from the production of 20 or more successive brother-sister matings, the Balb/c mouse is albino and small in size) were immunized on Days 1, 15, and 29 with Ovalbumin (Ovalbumin is the main protein found in egg white, commonly used to stimulate an immunological reaction in test animals) in PBS (5 micrograms/injection). On day 50, spleens of the mice were harvested (3 weeks after last boost with Ovalbumin). […] Thereafter, additional Ovalbumin was added to the cells at 10 micrograms/ml for in vitro restimulation of the cells. 72 hours later, cell supernatants were harvested and assayed using the Becton Dickinson Mouse Th1/Th2 Cytokine CBA Kit. This kit can be used to measure Interleukin-2 (IL-2), Interleukin-4 (IL-4), Interleukin-5 (IL-5), Interferon-γ (IFN-γ), and Tumor Necrosis Factor-α (TNF-α) protein levels in a single sample.

[6] = tested on: Tumor Necrosis Factor-α (TNF-α); assay: Th1/Th2 cytokine profiling assay, TNF-α; conditions: 10 micrograms per ml; Ovalbumin-restimulated Balb/c spleen cells, 72 hours
Source text: (§2) The Balb/c mice (originated in 1923, it is a popular strain and is used in many different research disciplines. Also classified as an inbred from the production of 20 or more successive brother-sister matings, the Balb/c mouse is albino and small in size) were immunized on Days 1, 15, and 29 with Ovalbumin (Ovalbumin is the main protein found in egg white, commonly used to stimulate an immunological reaction in test animals) in PBS (5 micrograms/injection). On day 50, spleens of the mice were harvested (3 weeks after last boost with Ovalbumin). […] Thereafter, additional Ovalbumin was added to the cells at 10 micrograms/ml for in vitro restimulation of the cells. 72 hours later, cell supernatants were harvested and assayed using the Becton Dickinson Mouse Th1/Th2 Cytokine CBA Kit. This kit can be used to measure Interleukin-2 (IL-2), Interleukin-4 (IL-4), Interleukin-5 (IL-5), Interferon-γ (IFN-γ), and Tumor Necrosis Factor-α (TNF-α) protein levels in a single sample. The kit performance has been optimized for analysis of physiologically relevant concentrations (μg/ml levels) of specific cytokine proteins in tissue culture supernatants and serum samples.

[7] = tested on: Interleukin-2 (IL-2); assay: Th1/Th2 cytokine profiling assay, IL-2; conditions: 10 micrograms per ml; Ovalbumin-restimulated Balb/c spleen cells, 72 hours
Source text: as §1

[8] = tested on: Interferon-γ (IFN-γ); assay: Th1/Th2 cytokine profiling assay, IFN-γ; conditions: 10 micrograms per ml; Ovalbumin-restimulated Balb/c spleen cells, 72 hours
Source text: as §2

[9] = tested on: HUVEC; assay: Endothelial tube formation assay; conditions: 10 micrograms per ml, 20 hours, combination peptide 1:peptide 2 0.95 mole:1.05 mole
Method: The endothelial tube formation assay is based on the ability of endothelial cells to form three-dimensional capillary-like tubular structures when cultured on a gel of basement membrane extract. […] Pre-labeled HUVEC with Calcein AM were seeded in a 96-well culture plate coated with extracellular metrix (Chemicon international Cat. ECM625) and treated with test peptides—10 micrograms per ml—in full growth medium. Positive control was vehicle only. The endothelial cells were allowed to form tubes for 20 hours and were then examined under an inverted fluorescent microscope. Duplicate wells for each treatment were photographed and quantitatively analyzed for an average tubule length using image analysis software ImageProPlus. Raw data were expressed as average tubule lengths in pixels ±standard deviation. Statistic p values were computed using the Student's t-test.

[10] = tested on: Human Peripheral Blood Mononuclear Cells (PBMC), B cell proliferation; assay: B cell proliferation assay (SAC plus Interleukin-2 stimulated PBMC, 3H-thymidine); conditions: 10 micrograms per ml, 3 days
Method: Human Peripheral Blood Mononuclear Cells (PBMC) were obtained from normal human donors. The B cell proliferation was induced by stimulation of the cells with the B cell mitogen Staphylococcus aureus Cowans I (SAC) plus Interleukin-2, either in the absence (positive proliferation control), or in the presence of test peptides—10 micrograms per ml—to examine their effects on the B cell response. 10^5/well PBMC were plated in 96-well microtiter plates and assayed in duplicate with the peptides. […] At the end of incubation time, the plates were harvested and the cells counted by liquid scintillation for the incorporation of ^3H-thymidine as a measure of B cell proliferation.

[11] = tested on: Primary Human endothelial cells (HUVEC); assay: Endothelial cell migration assay; conditions: 10 micrograms per ml, 22 hours
Method: Primary Human endothelial cells (HUVEC) were seeded in insert chambers with 3 micrometer pore size of multi-transwell plate for 6 hours at 37° C. in Endothelial Cell Basal Medium (EBM) supplemented with 0.1% bovine serum albumin. Thereafter, designated concentration of testing peptides—10 micrograms per ml—was added in duplicate wells. The endothelia were allowed to migrate for 22 hours at 37° C., then, migrated cells were fixed and stained with Hoechst 33342 dye. Images of 3 fields per insert were taken and the number of migrated cells per field were quantified using the ImageProPlus software. Data were analyzed for the average number of the migrated cells and standard deviation of six data points for each treatment condition. […] Statistic p values were computed using the Student's t-test.

[12] = tested on: Interleukin-5 (IL-5); assay: Th1/Th2 cytokine profiling assay, IL-5; conditions: 10 micrograms per ml; Ovalbumin-restimulated Balb/c spleen cells, 72 hours
Source text: as §1

Molecule	antiviral activity of positive control compounds (HIV-1) [1]	antiviral activity of positive control compound (HCMV) [2]	inhibition of HBV replication as compared to the virus control infection [3]	induction of the ceramide-induced apoptosis on human lung cells [4]	IL-4 spleen cells; TH2 response (% of control) [5]	TNF-a spleen cells; TH1 response (% of control) [6]	IL-2 spleen cells (% of control) [7]	IFNγ spleen cells; TH1 response (% of control) [8]	induction of the tube formation of human endothelial cells [9] [%]	induction of the proliferation of specifically stimulated human B-cells [10]	induction of the migration of endothelial cells [11] [%]	IL-5 spleen cells; TH2 response (% of control) [12]	inhibition of the migration of endothelial cells ([11]; combination peptide 1:peptide 2 0.95 mole:1.05 mole) [%]
Cc1cn([C@H]2C[C@H](N=[N+]=[N-])[C@@H](CO)O2)c(=O)[nH]c1=O [AZT]	expected levels of antiviral activity	–	–	–	–	–	–	–	–	–	–	–	–
Nc1nc(O)c2ncn(COC(CO)CO)c2n1 [Ganciclovir]	–	expected levels of antiviral activity	–	–	–	–	–	–	–	–	–	–	–
CC(C)(C)NC(=O)[C@@H]1CN(Cc2cccnc2)CCN1C[C@@H](O)C[C@@H](Cc1ccccc1)C(=O)N[C@H]1c2ccccc2C[C@H]1O [indinavir]	expected levels of antiviral activity	–	–	–	–	–	–	–	–	–	–	–	–
Ac-Met-Trp-Asp-Phe-Asp-Asp-Leu-Asn-Phe-Thr-Gly-Met-Pro-Pro-Ala-Asp-Glu-Asp-Tyr-Ser-Pro-NH2 (Ac-MWDFDDLNFTGMPPADEDYSP-NH2) [peptide 2]	–	–	no effect	19.65%	136.3 % of control	90.3 % of control	63.0 % of control	59.2 % of control	32	does not show any induction	9	59.3 % of control	–
His-Ser-Asp-Gly-Ile-Phe-Thr-Asp-Ser-Tyr-Ser-Arg-Tyr-Arg-Lys-Gln-Met-Ala-Val-Lys-Lys-Tyr-Leu-Ala-Ala-Val-Leu-Gly-Lys-Arg-Tyr-Lys-Gln-Arg-Val-Lys-Asn-Lys-NH2 (HSDGIFTDSYSRYRKQMAVKKYLAAVLGKRYKQRVKNK-NH2) [peptide 1]	–	–	48.0%	did not induce	120.1 % of control	94.0 % of control	0.0 % of control	60.8 % of control	36	23.3%	–	63.0 % of control	6
